In patent US9283236B2 (HUMAN MATRIX SCIENCES, LLC, priority 2008, dated 2016):
“Also recorded” adds a separate entry of the source. Like-named read-outs stand apart in the source and are kept apart here.

Experiments:
[1] = system: human fetal cardiac fibroblasts; assay: Quantitative assay of [3H]valine-labeled insoluble elastin; assay type: cell-based; conditions: for effect on aldosterone-induced increase in insoluble elastin production: agent added 1 hour before aldosterone (50 nM or 1 to 50 nmol/L)
[2] = system: Gα13 and c-Src; assay: Co-immunoprecipitation of Gα13 and c-Src; assay type: cell-based, human; conditions: vs untreated controls
[3] = system: human fetal cardiac fibroblasts; assay: One-step RT-PCR of elastin mRNA in cardiac fibroblast cultures; assay type: cell-based; conditions: for effect on aldosterone-induced increase in elastin mRNA levels: agent added 1 hour (CT04 2 hours) before aldosterone
[4] = system: IGF-IR; assay: IGF-IR immunoprecipitation and anti-phosphotyrosine blot; assay type: cell-based, human
Procedure: Cells were lysed using an radioimmunoprecipitation assay buffer [50 mmol/L Tris-HCl, pH 7.4, 150 mmol/L NaCl, 1 mmol/L ethylenediamine tetraacetic acid, 10 mmol/L NaF, 1% Triton X-100, 0.1% sodium dodecyl sulfate, 1% sodium deoxycholate containing a cocktail of antiproteases (20 μg/ml leupeptin, 10 μg/ml aprotinin, 0.1 mmol/L phenylmethylsulfonyl fluoride, and 1 mmol/L dithiothreitol) and antiphosphates ([…] orthovanadate and 2 μg/ml pepstatin)], and 300 μg of protein extract was incubated with an antibody against IGF-IRβ for 1 hour at 4° C., followed by the addition of 4% protein A-beaded agarose left overnight, as previously described. The resulting protein-antibody conjugate was centrifuged at 4° C. and washed four times with phosphate-buffered saline. The final pellet was resuspended in sample buffer (0.5 mol/L Tris-HCl, pH 6.8, 10% sodium dodecyl sulfate, 10% glycerol, 4% 2-B-mercaptoethanol, and 0.05% bromphenol blue), and the mixture was boiled for 5 minutes. Proteins were resolved by 12% sodium dodecyl sulfate-polyacrylamide gel electrophoresis, transferred to nitrocellulose membranes, and then immunoblotted with anti-p-Tyr or anti-IGF-IR antibodies. The degree of expression or phosphorylation of immunodetected signaling molecules was measured by densitometry.
At the end of each experiment the cells were lysed as specified above, and 300 μg of protein extract were then precleared for 1 hour with normal rabbit agarose conjugated-IgG at 4° C. and incubated with rabbit polyclonal antibodies against IGF-IR-β, c-Src, or with Gα13 for 1 hour at 4° C., followed by the addition of 4% protein A-beaded agarose and left overnight. The resulting protein-antibody conjugate was centrifuged at 4° C. and washed four times with PBS. The final pellet was resuspended in sample buffer, and the proteins were resolved. Following immunoprecipitation of IGF-IR-β, the membrane was immunoblotted using monoclonal anti-p-Tyr antibody, stripped, and reprobed using anti-IGF-IR-β. Following immunoprecipitation of c-Src, the membranes were immunoblotted using polyclonal goat antibodies against anti-Gα13, while those immunoprecipitated with anti-Gα13 were developed with monoclonal anti-c-Src antibody. Blots were stripped and re-probed for equal loading.
The degree of expression or phosphorylation of immunodetected signaling molecules was measured by densitometry.

[5] = system: human fetal cardiac fibroblasts; assay: Quantitative assay of [3H]valine-labeled immunoprecipitable tropoelastin; assay type: cell-based; conditions: spironolactone with 1 to 50 nmol/L aldosterone, 72 hours
Procedure: Fetal human cardiac fibroblasts were grown to confluence in 35-mm culture dishes (100,000 cells/dish) in quadruplicate. […] Cultures were incubated for 72 hours, and the soluble and insoluble elastin were assessed separately in each dish. The cells were extensively washed with phosphate-buffered saline, and the soluble proteins present in the intracellular compartments were extracted overnight at 4° C. with 0.1 mol/L acetic acid in the presence of proteinase inhibitors. After centrifugation, the supernatants were precleaned by 30-minute incubation with 50 μl of 4% protein A-beaded agarose, and then 500 μl of the supernatant was incubated with 5 μg of polyclonal antibody to tropoelastin for 2 hours and subsequently with 50 μl of 4% protein A-beaded agarose for 3 hours at 4° C. The protein A-containing beads were sedimented by centrifugation, washed with immunoprecipitation buffer, mixed with scintillation fluid, and counted. […] The resulting pellets containing the insoluble elastin were then solubilized by boiling in 200 μl of 5.7 N HCl for 1 hour, and the aliquots were mixed in scintillation fluid and counted. […] Final results reflecting amounts of metabolically labeled insoluble elastin in individual cultures were normalized per their DNA content and expressed as counts per minute per 1 μg of DNA.

[6] = system: human fetal cardiac fibroblasts; assay: One-step RT-PCR of collagen type I mRNA in cardiac fibroblast cultures; assay type: cell-based; conditions: 1 hour pretreatment before 1 to 50 nmol/L aldosterone; spironolactone 2 μmol/L, RU 486 1 μmol/L
[7] = system: adult human cardiac fibroblasts; assay: One-step RT-PCR of elastin mRNA in adult cardiac fibroblasts; assay type: cell-based; conditions: 1 hour pretreatment before aldosterone
[8] = system: human fetal cardiac fibroblasts; assay: Immunostaining of collagen type I fibers in confluent cultures; assay type: cell-based; conditions: pretreatment before 1 to 50 nmol/L aldosterone; RU 486 1 μmol/L; FIG. 1
[9] = system: adult human cardiac fibroblasts; assay: Anti-elastin immunostaining in adult cardiac fibroblasts; assay type: cell-based; conditions: spironolactone pretreatment
Procedure: Control cell cultures received an equal amount of the solvent vehicle. […] ScienCell (San Diego, Calif.). At the end of the 72-hour incubation period with the indicated treatment, confluent cultures were either fixed in ice-cold 100% methanol at -20° C. […] The cultures were then incubated for 1 hour with 10 μg/ml polyclonal antibody to tropoelastin or with 10 μg/ml polyclonal antibody to collagen type I. All cultures were then incubated for an additional hour with fluorescein-conjugated goat anti-rabbit or with fluorescein-conjugated rabbit anti-goat secondary antibodies to detect elastin and collagen type I staining, respectively. Nuclei were counterstained with propidium iodide. Secondary antibody alone was used as a control. All of the cultures were then mounted in Elvanol and examined with a Nikon Eclipse […] microscope attached to a cooled charge-coupled device camera (Retiga EX; QImaging, Surrey, BC, Canada) and a computer-generated video analysis system (Image-Pro Plus software; Media Cybernetics, Silver Spring, Md.).

[10] = agent added before aldosterone, readout not specified, partly data not shown

COc1cc2ncnc(Nc3cccc(Cl)c3)c2cc1OC [AG 1478]
effect on aldosterone-induced increase in elastin production (elastogenic response) [1, 10]: did not affect the aldosterone-induced increase in elastin production

aluminum fluoride
interaction between c-Src and Gα13 [2]: increased the interaction between c-Src and Gα13

C[C@@H](N)[C@H]1CC[C@H](C(=O)Nc2ccncc2)CC1 [Y-27632]
effect on aldosterone-induced increase in elastin mRNA levels ([3]; 24 hours): did not eliminate the aldosterone-induced increase in elastin mRNA expression | effect on aldosterone-induced increase in elastin production (elastogenic response) [1, 10]: did not eliminate the aldosterone-induced increase in elastin mRNA expression and elastin production

CC(C)(C)c1cc(C=C(C#N)C#N)cc(Br)c1O [AG 1024]
effect on aldosterone-induced increase in elastin mRNA levels ([3]; 24 hours): eliminated the stimulatory effect of aldosterone on elastin mRNA expression; also recorded: abolished aldosterone- and IGF-I-induced increases in elastin mRNA transcript levels | effect on IGF-I-induced increase in elastin mRNA levels ([3]; pretreatment or siRNA transfection before 100 ng/ml IGF-I): could be prevented; also recorded: abolished aldosterone- and IGF-I-induced increases in elastin mRNA transcript levels | effect on aldosterone-induced increase in insoluble elastin production ([1]; 72 hours): eliminated the stimulatory effect of aldosterone on elastin mRNA expression and insoluble elastin production; also recorded: returned insoluble elastin production to control values | effect on IGF-I-induced increase in insoluble elastin production ([1]; pretreatment or siRNA transfection before 100 ng/ml IGF-I, 72 hours): could be prevented; also recorded: returned insoluble elastin production to control values

CT04: cell-permeable Rho inhibitor (exoenzyme C3 transferase) from Cytoskeleton, Inc.
effect on aldosterone-induced increase in elastin mRNA levels ([3]; 24 hours): did not eliminate the aldosterone-induced increase in elastin mRNA expression | effect on aldosterone-induced increase in elastin production (elastogenic response) [1, 10]: did not eliminate the aldosterone-induced increase in elastin mRNA expression and elastin production

pertussis toxin
effect on aldosterone-induced increase in insoluble elastin production ([1]; 72 hours): did not inhibit the elastogenic effect of aldosterone | effect on aldosterone-induced increase in elastin production (elastogenic response) [1, 10]: did not abrogate the aldosterone-induced increase in elastin production; also recorded: does not attenuate the pro-elastogenic effect of aldosterone

Cc1cc(Cn2cnc3c2C[C@@H](C(=O)O)N(C(=O)C(c2ccccc2)c2ccccc2)C3)ccc1N(C)C [PD 123319]
effect on aldosterone-induced increase in elastin production (elastogenic response) [1, 10]: did not abrogate their elastogenic response to aldosterone

CN[C@@H]1C[C@H]2O[C@@](C)([C@@H]1OC)n1c3ccccc3c3c4c(c5c6ccccc6n2c5c31)C(=O)NC4 [staurosporine]
effect on aldosterone-induced increase in elastin production (elastogenic response) [1]: did not abrogate the aldosterone-induced increase in elastin production

Cc1cc2ncc(-c3ccccc3)nc2cc1C [AG 1295]
effect on aldosterone-induced increase in elastin production (elastogenic response) [1, 10]: did not affect the aldosterone-induced increase in elastin production

IGF-I: recombinant human insulin-like growth factor-I
elastin mRNA levels ([3]; 100 ng/ml IGF-I, 24 hours): approximately threefold increase | net production of insoluble elastin ([1]; 100 ng/ml IGF-I, 72 hours): approximately threefold increase | tyrosine phosphorylation of the IGF-IR ([4]; 10-minute exposure, 10% fetal bovine serum, aldosterone or BSA-conjugate 50 nM, IGF-I 100 ng/ml): produced a very similar effect | tyrosine phosphorylation of the IGF-IR, dependence on serum ([4]; presence vs absence of fetal bovine serum): induced phosphorylation of its IGF-IR, both in the presence and in the absence of fetal bovine serum

CC(=O)S[C@@H]1CC2=CC(=O)CC[C@]2(C)[C@H]2CC[C@@]3(C)[C@@H](CC[C@@]34CCC(=O)O4)[C@H]12 [spironolactone]
effect on aldosterone-induced increase in tropoelastin production [5]: failed to prevent; also recorded: did not abrogate the increase in tropoelastin production | effect on aldosterone-induced increase in collagen type I mRNA levels [6]: returned the aldosterone-induced increase in collagen type I mRNA levels to untreated values | effect on aldosterone-induced increase in elastin mRNA levels ([3]; 24 hours): failed to prevent an aldosterone-induced increase in elastin mRNA expression; also recorded: neither spironolactone nor RU 486 eliminated this increase | effect on aldosterone-induced increase in elastin mRNA, adult cardiac fibroblasts [7]: had no effect on the aldosterone-induced increase in elastin mRNA transcript levels | effect on aldosterone-induced increase in insoluble elastin production ([1]; 72 hours): failed to prevent; also recorded: did not eliminate the increase in insoluble elastin production | effect on aldosterone-induced collagen production [8]: abrogated aldosterone-induced collagen production; also recorded: eliminated any aldosterone-induced increase in collagen type I production | effect on aldosterone-induced increase in elastic fiber deposition, adult cardiac fibroblasts [9]: did not affect aldosterone-induced increase in elastic fiber deposition

COc1cccc(-c2cc(=O)c3ccccc3o2)c1N [PD 98059]
insoluble elastin production, inhibitor alone ([1]; 10 μM, 72 hours, 10% FBS, vs untreated control): significantly increased insoluble elastin production | effect on aldosterone-induced increase in insoluble elastin production ([1]; 72 hours): did not eliminate the elastogenic effect of aldosterone but instead led to a further increase in the production of elastin; also recorded: further increased insoluble elastin production

NC(=O)c1ccc(-c2nc(-c3ccc4c(c3)OCO4)c(-c3ccccn3)[nH]2)cc1 [SB 431542]
effect on aldosterone-induced increase in elastin production (elastogenic response) [1, 10]: did not affect the aldosterone-induced increase in elastin production

CCCCc1nc(Cl)c(CO)n1Cc1ccc(-c2ccccc2-c2nn[nH]n2)cc1 [losartan, Losartan]
effect on aldosterone-induced increase in elastin production (elastogenic response) [1, 10]: did not abrogate their elastogenic response to aldosterone

CC#C[C@]1(O)CC[C@H]2[C@@H]3CCC4=CC(=O)CCC4=C3[C@@H](c3ccc(N(C)C)cc3)C[C@@]21C [RU 486, mifepristone]
effect on aldosterone-induced increase in collagen type I mRNA levels [6]: had no effect on the aldosterone-induced increase in collagen type I mRNA transcript levels | effect on aldosterone-induced increase in elastin mRNA levels ([3]; 24 hours): had no effect on the aldosterone-induced increase in elastin mRNA levels; also recorded: neither spironolactone nor RU 486 eliminated this increase | effect on aldosterone-induced collagen production [8]: but not with the glucocorticoid receptor (GR) antagonist RU 486 (1 μmol/L), abrogated aldosterone-induced collagen production
